According to patent US20240158446A1, “CYCLIC COMPOUND HAVING SELECTIVE INHIBITORY ACTION ON KRAS OVER HRAS AND NRAS” (CHUGAI SEIYAKU KABUSHIKI KAISHA, priority 2021, published 2024):
*1 amine or outer side, *2 acyl side, *3 side chain or, on linkers, in order; H or OH if unused. Where a SMILES comes first, the peptide text is derived from it. Bridges are numbered along the chain shown (N, C = ends). [ ]: non-standard residue; d: D form. The star is where a group is joined. hPhe(3-Cl-4-CF3) = N[C@@H](CCc1ccc(C(F)(F)F)c(Cl)c1)C(=O)O; NPrPhe(4-CF3) = CCCN[C@@H](Cc1ccc(C(F)(F)F)cc1)C(=O)O; NEtAsp = CCN([C@@H](CC(=O)[*:3])C(=O)[*:2])[*:1]; NMeGly(cPent) = CN[C@H](C(=O)O)C1CCCC1; NMeD = CN[C@@H](CC(=O)O)C(=O)O; NMeL = CN[C@@H](CC(C)C)C(=O)O; Morpholide = C1CN(*)CCO1; Ac5c = NC1(C(=O)O)CCCC1; Sar = CNCC(=O)O

How the values were obtained:
[1] = test system: human lung cancer strain NCI-H441; assay: cells; details: NCI-H441, 96 h, read-out: NCI-H441 IC50 (nM), NCI-H441 cell proliferation, 4 days, CellTiter-Glo;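 also: cell proliferation inhibition after four days measured by CellTiter-Glo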
[2] = target: GDP-bound KRAS wild-type protein (Homo sapiens, UniProt P01116); assay: Binding to KRAS by surface plasmon resonance (SPR), Single Cycle Kinetics; details: SPR, Single Cycle Kinetics, GDP-bound KRAS wild-type protein; read-out: KRAS KD
Sequence of GDP-bound KRAS wild-type protein (P01116 whole entry): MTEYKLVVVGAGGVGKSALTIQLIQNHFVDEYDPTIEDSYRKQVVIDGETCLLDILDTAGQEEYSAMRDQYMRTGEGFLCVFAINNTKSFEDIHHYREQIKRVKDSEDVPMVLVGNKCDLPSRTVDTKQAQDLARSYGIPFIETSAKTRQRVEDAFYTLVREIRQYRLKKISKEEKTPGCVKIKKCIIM

[3] = target: GDP-bound NRAS wild-type protein (Homo sapiens, UniProt P01111); assay: Binding to NRAS by surface plasmon resonance (SPR), Single Cycle Kinetics; details: ratio of KD for GDP-bound NRAS wild-type protein to KD for KRAS, SPR
Sequence of GDP-bound NRAS wild-type protein (P01111 whole entry): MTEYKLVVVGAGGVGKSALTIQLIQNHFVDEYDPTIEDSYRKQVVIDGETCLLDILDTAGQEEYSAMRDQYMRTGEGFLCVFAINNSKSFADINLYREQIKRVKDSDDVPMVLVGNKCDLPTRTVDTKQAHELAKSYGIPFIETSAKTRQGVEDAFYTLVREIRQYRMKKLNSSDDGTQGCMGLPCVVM

[4] = target: GDP-bound HRAS wild-type protein (Homo sapiens, UniProt P01112); assay: Binding to HRAS by surface plasmon resonance (SPR), Single Cycle Kinetics; details: ratio of KD for GDP-bound HRAS wild-type protein to KD for KRAS, SPR
Sequence of GDP-bound HRAS wild-type protein (P01112 whole entry): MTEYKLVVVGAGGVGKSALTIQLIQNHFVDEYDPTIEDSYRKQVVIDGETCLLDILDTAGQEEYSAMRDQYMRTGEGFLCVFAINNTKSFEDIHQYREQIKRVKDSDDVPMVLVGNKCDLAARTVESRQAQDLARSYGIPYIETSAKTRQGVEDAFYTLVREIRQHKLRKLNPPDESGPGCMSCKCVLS

IC50 [1] [nM]	Kd [2] [nM]	SMILES	NRAS/KRAS (KD ratio) [3]	HRAS/KRAS (KD ratio) [4]
16.8	0.62	CCCN1C(=O)CN(C)C(=O)CNC(=O)[C@H]([C@@H](C)CC)NC(=O)[C@H](CC(C)C)N(C)C(=O)C[C@@H](C(=O)N2CCOCC2)N(CC)C(=O)[C@H](C2CCCC2)N(C)C(=O)C2(CCCC2)NC(=O)[C@@H]2CCCN2C(=O)[C@H](CCc2ccc(C(F)(F)F)c(Cl)c2)NC(=O)CN(C)C(=O)[C@@H]1Cc1ccc(C(F)(F)F)cc1 [PP1970] ([NMeL]IG[Sar][NPrPhe(4-CF3)][Sar][hPhe(3-Cl-4-CF3)]P[Ac5c][NMeGly(cPent)][NEtAsp]-Morpholide; lactam N-11)	B (a compound having 3 or more and less than 10 is denoted as B)	B (a compound having 3 or more and less than 10 is denoted as B)
38	5	CCCN1C(=O)CN(C)C(=O)[C@H](C)NC(=O)[C@H]([C@@H](C)CC)NC(=O)[C@H](CC(C)C)N(C)C(=O)C[C@@H](C(=O)N2CCOCC2)N(C)C(=O)[C@H](C2CCCC2)N(C)C(=O)C2(CCCC2)NC(=O)[C@@H]2CCCN2C(=O)[C@H](CCc2ccc(C(F)(F)F)c(Cl)c2)NC(=O)CN(C)C(=O)[C@@H]1Cc1ccc(C(F)(F)F)cc1 [PP1971] ([NMeL]IA[Sar][NPrPhe(4-CF3)][Sar][hPhe(3-Cl-4-CF3)]P[Ac5c][NMeGly(cPent)][NMeD]-Morpholide; lactam N-11)	B (a compound having 3 or more and less than 10 is denoted as B)	B (a compound having 3 or more and less than 10 is denoted as B)
13.2	0.15	CC[C@H](C)[C@@H]1NC(=O)[C@H](CCOC)N(C)C(=O)C[C@@H](C(=O)N(C)CC)N(C)C(=O)[C@H](C2CCCC2)N(C)C(=O)C2(CC(C)(C)C2)NC(=O)[C@@H]2C[C@H](C)CN2C(=O)[C@H](CCc2cc(F)c(C(F)(F)F)c(F)c2)NC(=O)CN(C)C(=O)[C@H](Cc2ccc(C(F)(F)F)cc2)N2CC/C=C\C[C@@H](C2=O)N(C)C(=O)CN(C)C1=O [PP1972]	A (a compound having 10 or more and less than 20 is denoted as A)	A (a compound having 10 or more and less than 20 is denoted as A)
8.7	0.099	CCCOC[C@H]1C(=O)N[C@@H]([C@@H](C)CC)C(=O)N(C)CC(=O)N(C)[C@H]2C/C=C\CCN(C2=O)[C@@H](Cc2ccc(C(F)(F)F)cc2)C(=O)N(C)CC(=O)N[C@@H](CCc2ccc(C(F)(F)F)c(OC)c2)C(=O)N2C[C@H](OCC)C[C@H]2C(=O)NC2(CC(C)(C)C2)C(=O)N(C)[C@@H](C2CCCC2)C(=O)N(C)[C@H](C(=O)N(C)CC)CC(=O)N1C [PP1973]	A (a compound having 10 or more and less than 20 is denoted as A)	B (a compound having 3 or more and less than 10 is denoted as B)
50	0.18	CCCN(C)C(=O)[C@@H]1CC(=O)N(C)[C@@H](CCOC)C(=O)N[C@@H]([C@@H](C)CC)C(=O)N(C)CC(=O)N(C)[C@H]2C/C=C\CCN(C2=O)[C@@H](Cc2ccc(C(F)(F)F)cc2)C(=O)N(C)CC(=O)N[C@@H](CCc2cc(F)c(C(F)(F)F)c(F)c2)C(=O)N2C[C@@H](C)C[C@H]2C(=O)NC2(CC(C)(C)C2)C(=O)N(C)[C@@H](C2CCCC2)C(=O)N1C [PP1974]	A (a compound having 10 or more and less than 20 is denoted as A)	A (a compound having 10 or more and less than 20 is denoted as A)
13.4	0.11	CCCN(C)C(=O)[C@@H]1CC(=O)N(C)[C@@H](CCOC)C(=O)N[C@@H]([C@@H](C)CC)C(=O)N(C)CC(=O)N(C)[C@H]2C/C=C\CCN(C2=O)[C@@H](Cc2ccc(C(F)(F)F)cc2)C(=O)N(C)CC(=O)N[C@@H](CCc2ccc(C(F)(F)F)c(OC)c2)C(=O)N2C[C@H](OCC)C[C@H]2C(=O)NC2(CC(C)(C)C2)C(=O)N(C)[C@@H](C2CCCC2)C(=O)N1C [PP1975]	A (a compound having 10 or more and less than 20 is denoted as A)	A (a compound having 10 or more and less than 20 is denoted as A)
92	0.37	CC[C@H](C)[C@@H]1NC(=O)[C@H](C(C)C)N(C)C(=O)C[C@@H](C(=O)N(C)CC)N(C)C(=O)[C@H](C2CCCC2)N(C)C(=O)C2(CC(C)(C)C2)NC(=O)[C@@H]2C[C@H](C)CN2C(=O)[C@H](CCc2cc(F)c(C(F)(F)F)c(F)c2)NC(=O)CN(C)C(=O)[C@H](Cc2ccc(C(F)(F)F)cc2)N2CC/C=C\C[C@@H](C2=O)N(C)C(=O)CN(C)C1=O [PP1976]	AA (a compound having 20 or more is denoted as AA)	A (a compound having 10 or more and less than 20 is denoted as A)
20.2	0.15	CCO[C@@H]1C[C@H]2C(=O)NC3(CC(C)(C)C3)C(=O)N(C)[C@@H](C3CCCC3)C(=O)N(C)[C@H](C(=O)N(C)CC)CC(=O)N(C)[C@@H](C(C)C)C(=O)N[C@@H]([C@@H](C)CC)C(=O)N(C)CC(=O)N(C)[C@H]3C/C=C\CCN(C3=O)[C@@H](Cc3ccc(C(F)(F)F)cc3)C(=O)N(C)CC(=O)N[C@@H](CCc3ccc(C(F)(F)F)c(OC)c3)C(=O)N2C1 [PP1977]	AA (a compound having 20 or more is denoted as AA)	A (a compound having 10 or more and less than 20 is denoted as A)
12.5	0.087	CCO[C@@H]1C[C@H]2C(=O)NC3(CC(C)(C)C3)C(=O)N(C)[C@@H](C3CCCC3)C(=O)N(C)[C@H](C(=O)N(C)C)CC(=O)N(C)[C@@H](C(C)C)C(=O)N[C@@H]([C@@H](C)CC)C(=O)N(C)CC(=O)N(C)[C@H]3C/C=C\CCN(C3=O)[C@@H](Cc3ccc(C(F)(F)F)cc3)C(=O)N(C)CC(=O)N[C@@H](CCc3ccc(C(F)(F)F)c(OC)c3)C(=O)N2C1 [PP1979]	AA (a compound having 20 or more is denoted as AA)	A (a compound having 10 or more and less than 20 is denoted as A)
20.7	0.1	CCO[C@@H]1C[C@H]2C(=O)NC3(CC(C)(C)C3)C(=O)N(C)[C@@H](C3CCCC3)C(=O)N(C)[C@H](C(=O)N(C)CC)CC(=O)N(C)[C@@H](C3CC3)C(=O)N[C@@H]([C@@H](C)CC)C(=O)N(C)CC(=O)N(C)[C@H]3C/C=C\CCN(C3=O)[C@@H](Cc3ccc(C(F)(F)F)cc3)C(=O)N(C)CC(=O)N[C@@H](CCc3ccc(C(F)(F)F)c(OC)c3)C(=O)N2C1 [PP1981]	A (a compound having 10 or more and less than 20 is denoted as A)	A (a compound having 10 or more and less than 20 is denoted as A)
20.2	0.14	CCCN(C)C(=O)[C@@H]1CC(=O)N(C)[C@@H](C2CC2)C(=O)N[C@@H]([C@@H](C)CC)C(=O)N(C)CC(=O)N(C)[C@H]2C/C=C\CCN(C2=O)[C@@H](Cc2ccc(C(F)(F)F)cc2)C(=O)N(C)CC(=O)N[C@@H](CCc2ccc(C(F)(F)F)c(OC)c2)C(=O)N2C[C@H](OCC)C[C@H]2C(=O)NC2(CC(C)(C)C2)C(=O)N(C)[C@@H](C2CCCC2)C(=O)N1C [PP1983]	AA (a compound having 20 or more is denoted as AA)	A (a compound having 10 or more and less than 20 is denoted as A)
50.8	0.3	CC[C@H](C)[C@@H]1NC(=O)[C@H](C2CCC2)N(C)C(=O)C[C@@H](C(=O)N(C)CC)N(C)C(=O)[C@H](C2CCCC2)N(C)C(=O)C2(CC(C)(C)C2)NC(=O)[C@@H]2C[C@H](C)CN2C(=O)[C@H](CCc2cc(F)c(C(F)(F)F)c(F)c2)NC(=O)CN(C)C(=O)[C@H](Cc2ccc(C(F)(F)F)cc2)N2CC/C=C\C[C@@H](C2=O)N(C)C(=O)CN(C)C1=O [PP1984]	A (a compound having 10 or more and less than 20 is denoted as A)	A (a compound having 10 or more and less than 20 is denoted as A)
6.6	0.053	CCO[C@@H]1C[C@H]2C(=O)NC3(CC(C)(C)C3)C(=O)N(C)[C@@H](C3CCCC3)C(=O)N(C)[C@H](C(=O)N(C)C)CC(=O)N(C)[C@@H](C3CCC3)C(=O)N[C@@H]([C@@H](C)CC)C(=O)N(C)CC(=O)N(C)[C@H]3C/C=C\CCN(C3=O)[C@@H](Cc3ccc(C(F)(F)F)cc3)C(=O)N(C)CC(=O)N[C@@H](CCc3ccc(C(F)(F)F)c(OC)c3)C(=O)N2C1 [PP1987]	A (a compound having 10 or more and less than 20 is denoted as A)	A (a compound having 10 or more and less than 20 is denoted as A)
11	0.06	CCCN(C)C(=O)[C@@H]1CC(=O)N(C)[C@@H](COCC)C(=O)N[C@@H]([C@@H](C)CC)C(=O)N(C)CC(=O)N(C)[C@H]2C/C=C\CCN(C2=O)[C@@H](Cc2ccc(C(F)(F)F)cc2)C(=O)N(C)CC(=O)N[C@@H](CCc2cc(F)c(C(F)(F)F)c(F)c2)C(=O)N2C[C@H](OCC)C[C@H]2C(=O)NC2(CCC2)C(=O)N(C)[C@@H](C2CCCC2)C(=O)N1C [PP1988]	A (a compound having 10 or more and less than 20 is denoted as A)	A (a compound having 10 or more and less than 20 is denoted as A)
11.1	0.19	CCCN(C)C(=O)[C@@H]1CC(=O)N(C)[C@@H](CC(F)F)C(=O)N[C@@H]([C@@H](C)CC)C(=O)N(C)CC(=O)N(C)[C@H]2C/C=C\CCN(C2=O)[C@@H](Cc2ccc(C(F)(F)F)cc2)C(=O)N(C)CC(=O)N[C@@H](CCc2ccc(C(F)(F)F)c(OC)c2)C(=O)N2C[C@@H](C)C[C@H]2C(=O)NC2(CC(C)(C)C2)C(=O)N(C)[C@@H](C2CCCC2)C(=O)N1C [PP1989]	A (a compound having 10 or more and less than 20 is denoted as A)	A (a compound having 10 or more and less than 20 is denoted as A)
